The target in assay [1] is T1, 5-lipoxygenase (Rattus norvegicus, UniProt P12527).
T1 construct: endogenous in cells; host or cells: RBL-1 cells (rat basophilic leukemia), intact
T1 sequence (P12527 1-673): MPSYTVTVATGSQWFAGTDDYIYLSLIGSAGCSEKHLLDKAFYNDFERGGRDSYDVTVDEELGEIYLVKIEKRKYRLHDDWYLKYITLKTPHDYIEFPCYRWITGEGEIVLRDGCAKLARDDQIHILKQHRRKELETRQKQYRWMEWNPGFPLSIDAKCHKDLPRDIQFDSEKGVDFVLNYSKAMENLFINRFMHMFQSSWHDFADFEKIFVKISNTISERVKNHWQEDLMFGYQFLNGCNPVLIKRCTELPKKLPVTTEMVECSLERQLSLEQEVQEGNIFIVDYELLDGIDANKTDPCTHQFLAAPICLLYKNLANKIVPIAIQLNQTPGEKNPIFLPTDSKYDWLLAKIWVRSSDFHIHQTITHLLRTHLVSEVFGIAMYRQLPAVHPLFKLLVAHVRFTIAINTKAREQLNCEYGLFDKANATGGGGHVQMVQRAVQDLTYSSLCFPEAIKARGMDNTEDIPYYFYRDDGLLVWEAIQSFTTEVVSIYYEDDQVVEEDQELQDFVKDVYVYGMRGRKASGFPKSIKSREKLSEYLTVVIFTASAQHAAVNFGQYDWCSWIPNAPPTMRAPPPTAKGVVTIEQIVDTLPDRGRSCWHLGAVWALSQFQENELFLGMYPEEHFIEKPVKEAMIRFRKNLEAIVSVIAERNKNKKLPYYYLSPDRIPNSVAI
Nature of the assay: Inhibition of 5-lipoxygenase in RBL-1-cells. The assay is classed as cell-based. The settings on record: 20 μM [14C]-arachidonic acid, 20 μM A 23 187. Here is the method: To determine the inhibition of 5-lipoxygenase rat basophilic leukemia cells (RBL-1-cells) were cultured in vitro, harvested by centrifugation, washed with 50 mM potassium phosphate buffer of pH 7.4, and then suspended in this buffer at 1×10^7 cells/mi. To 1 ml each of this suspension there was added indomethacin (10 μM) and calcium chloride (2 mM), and then the mixture was incubated in the absence or presence of a compound according to the invention in a concentration range of from 0.1 μM to 100 μM for 3 minutes and thereafter with 20 μM of [^14 C]-arachidonic acid and 20 μM of the calcium ionophore A 23 187 for 10 minutes. The reaction was stopped by adding 20 μl of glacial acetic acid, and then the mixture was extracted with ethyl acetate to isolate the metabolites of arachidonic acid formed by the enzymatic action of 5-lipoxygenase. These were separated by thin layer chromatography using a solvent mixture known to be suitable for lipoxygenase products [c.f. Jakschik et al., Biochem. Biophys. Res. Commun. 102, 624 (1981)].
The distribution of the radioactivity among the various metabolites of arachidonic acid was measured using a TLC Linear Analyzer. By correlating the percentages of the amount of the products formed under the action of 5lipoxygenase (5-HETE, isomers of LTB4) in the absence as well as in the presence of different concentrations of compounds according to the invention, the IC50 -values, i.e. the concentrations which cause 50% inhibition of 5-lipoxygenase were determined graphically from semilogarithmic diagrams.

Assay [2] relates to 5-lipoxygenase. Put plainly: 5-lipoxygenase inhibition in rat blood after oral administration (ex vivo iLTB4-formation). Particulars: male Wistar rats, 21.5 mg/kg oral, one hour after administration, A 23 187 15 μg/ml. The protocol:
The bioavailability of the compounds of formula I as 5-lipoxygenase inhibitors was characterized by means of an ex vivo biochemical assessment method described by Tateson et al. in Brit. J. Pharmacol. 94, 528 (1988). A compound of formula I was orally administered to male rats (Wistar strain) in a dose of 21.5 mg/kg. One hour after administration the rats after lethal CO2 -narcosis were bled by heart puncture with added heparin as an anticoagulant. Aliquots of the whole blood were incubated at 37° C. for 30 minutes in a water bath with calcium ionophore A 23 187 at an end concentration of 15 μg/ml. At the end of the incubation the samples were centrifuged, and the concentration of immunoreactive LTB4 (iLTB4) in aliquots of […] percent inhibition of ex vivo iLTB4 -formation in whole blood of rats treated with a compound according to the invention, rats orally treated with an appropriate vehicle solution were included in all experiments, and aliquots of their blood were run in parallel and were processed in the same way as described. The average iLTB4 -content of the plasma of the vehicle treated rats served as the 100% value. The activity in percent of the ex vivo iLTB4 -formation after oral administration of a compound according to the invention was calculated by dividing the average value of the iLTB4 -content in ng iLTB4 /ml of the group treated with a compound according to the invention by the average value of the iLTB4 -contents in ng iLTB4 /ml of the vehicle treated group and subsequent multiplication by the factor 100. The respective inhibition in percent was calculated by subtracting the activity in percent from 100.

For a further assay, the target named is T2, thromboxane synthase (Homo sapiens, UniProt P24557).
T2 construct: human thrombocytes were isolated from platelet-rich plasma; endogenous in cells; host or cells: human thrombocytes (platelets), intact
T2 sequence (P24557 1-533): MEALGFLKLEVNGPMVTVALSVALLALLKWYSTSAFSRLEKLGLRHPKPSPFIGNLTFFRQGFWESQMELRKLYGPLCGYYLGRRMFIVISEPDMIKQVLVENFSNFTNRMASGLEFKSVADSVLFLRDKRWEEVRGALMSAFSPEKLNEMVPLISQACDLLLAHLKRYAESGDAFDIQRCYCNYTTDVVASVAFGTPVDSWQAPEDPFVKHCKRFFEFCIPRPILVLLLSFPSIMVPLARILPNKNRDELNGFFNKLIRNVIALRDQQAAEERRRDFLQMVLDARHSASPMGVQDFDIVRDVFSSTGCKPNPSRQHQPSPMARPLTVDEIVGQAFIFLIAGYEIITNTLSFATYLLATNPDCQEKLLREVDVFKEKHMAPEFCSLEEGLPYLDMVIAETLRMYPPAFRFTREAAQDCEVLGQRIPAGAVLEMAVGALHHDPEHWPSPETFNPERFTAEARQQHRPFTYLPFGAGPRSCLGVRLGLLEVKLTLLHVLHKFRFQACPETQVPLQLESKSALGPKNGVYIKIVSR
Nature of the assay: Inhibition of thromboxane synthase (human thrombocytes). The class given is cell-based. The settings on record: for IC50: human thrombocytes, arachidonic acid 3.5 μM, read-out: IC50-Value, inhibition of thromboxane synthase (TXB2 formation); for inhibitory action on thromboxane synthase: in words. Here is the method: After addition of prostacyclin, human thrombocytes were isolated from platelet-rich plasma and suspended in Tyrode-Hepes buffer of pH 7.4 at 2×10^8 cells/ml. One ml aliquots of cells were incubated either with a compound according to the invention (0.1 to 100 μM) or a solvent (ethanol and/or dimethyl sulfoxide) at 37° C. for 3 minutes and thereafter with radioactively labelled arachidonic acid (3.5 μM) for 5 minutes. The reaction was stopped and the metabolites of arachidonic acid were extracted by adding methanol, chloroform and formic acid. After evaporation of the chloroform-containing layer to dryness under nitrogen, the residue obtained was resuspended in 50 μl chloroform and analyzed by thin layer chromatography. The distribution of the radioactivity of the different metabolites of arachidonic acid was measured using a TLC linear analyzer.

In assay [3] the target is T1, 5-lipoxygenase. Nature of the assay: Inhibition of cell-free 5-lipoxygenase from RBL-1-cells. The assay is classed as biochemical. Particulars: 10,000×g supernatant of RBL cells; polarographic; arachidonic acid 75 μM. The protocol: Cell-free 5-lipoxygenase was polarographically measured from 10,000×gsupernatant of homogenized rat basophilic leucemia cells [M. Haurand and L. Flohe in Biol. Chem. Hoppe-Seyler 369, 133-142 (1988)]. After preincubation of the 10,000×g supernatant with arachidonic acid (75 μM), ATP (adenosine triphosphate; 4 μM), reduced glutathione (4 mM), and either a compound according to the invention (0.1 to 100 μM) or a solvent (ethanol and/or dimethyl sulfoxide) at 35° C. for 5 minutes, the lipoxygenase reaction was initiated by addition of calcium chloride (3 mM) and recorded simultaneously.
The activity of 5-lipoxygenase was determined from the difference of the pO2 -decrease before and after addition of calcium chloride. The evaluation included the initial rate of the reaction after the lag-phase as well as the duration of the lag-phase. In a concentration range of from 5 to 10 μM the test substances induced lag-phases of 15 seconds.

The subject of the next assay is guinea pigs. Nature of the assay: Allergen-induced bronchoconstriction in guinea pigs (Konzett-Roessler). The assay is classed as in vivo, guinea pig. The settings on record: 60 minutes before ovalbumin. The protocol: The antiasthmatic effect of compounds according to the invention was tested in anesthetized and ventilated guinea pigs. To induce an asthmatic reaction, the animals were passively sensitized by a single intraperitoneal injection of anti-ovalbumin serum. After 48 hours an asthmatic reaction was elicited by intravenous challenge with 0.2 mg/kg of ovalbumin. The immediately resulting bronchoconstriction was measured as an increase in intratracheal pressure. Effects caused by histamine, serotonin and sympathic counterreaction were eliminated by intravenous pretreatment with 2.15 mg/kg of mepyramine, 46.4 μg/kg of propranolol, 4.64 mg/kg of atropine, and 1 mg/kg of methysergide, all administered 5 minutes before challenge. Compounds according to the invention were orally administered 60 minutes before the administration of ovalbumin. The following ED40-values for the inhibition of the bronchoconstriction elicited by ovalbumin, i.e. the effective doses causing a 40% average inhibition of the bronchoconstriction, were determined: […]

The subject of assay [4] is 5-lipoxygenase. Particulars: in words, no test shown; cited from earlier work.

Where only a bound is given, the exact number is not on record here.

With `NC(=O)N(O)Cc1ccc(OCCn2ccnc2)cc1` [Comparison, N-hydroxy-N-[4-[2-(1H-imidazol-1-yl)ethoxy]phenylmethyl]urea, reference compound], the IC50 – broadly, the point on the concentration scale where inhibition reaches its midpoint – at 5-lipoxygenase [1] is > 100 µM; at thromboxane synthase, 4 µM; against 5-lipoxygenase [3], > 100 µM. Further, the “Inhibition of ex vivo iLTB4-formation in whole blood” value (from here on “Inhibition … in whole blood”) in the assay on 5-lipoxygenase [2] turned out to be 42%.
`NC(=O)N(O)Cc1ccc(Oc2ccc(-n3ccnc3)cc2)cc1` [Example 2, Imidazolium Chloride of N-hydroxy-N-[4-[4-(1H-imidazol-1-yl)phenoxy]phenylmethyl]urea] displayed a half-inhibitory concentration (IC50) against 5-lipoxygenase [1] of 5 µM. For the same molecule, the “Inhibition … in whole blood” value with 5-lipoxygenase [2] (21.5 mg/kg) was 95%. The “ED50-Value, inhibition of the bronchoconstriction elicited by ovalbumin” value in the assay with guinea pigs (oral, ED40) is recorded as 5.1 mg/kg.
Regarding `NC(=O)N(O)Cc1ccc(Oc2ccc(-n3ccnc3)cc2)s1` [Example 4, N-hydroxy-N-[5-[4-(1H-imidazol-1-yl)phenoxy]thien-2-yl-methyl]urea], on 5-lipoxygenase [1], the half-inhibitory concentration (IC50) was determined as 3 µM. Besides, in the assay with 5-lipoxygenase [2], the “Inhibition … in whole blood” value amounted to 93%. Also, in the assay on guinea pigs (Cavia porcellus, po, 1 h, read-out: ED40-Value, inhibition of the bronchoconstriction elicited by ovalbumin), the ED40 turned out to be 6.3 mg/kg.
In the case of `NC(=O)N(O)Cc1cccc(Oc2ccc(-n3ccnc3)cc2)c1` [Example 5, N-hydroxy-N-[3-[4-(1H-imidazol-1-yl)phenoxy]phenylmethyl]urea], the half-maximal inhibitory concentration (IC50) came out at 6 µM at 5-lipoxygenase [1], 2.5 µM on thromboxane synthase and 2 µM at 5-lipoxygenase [3]. For the same molecule, at thromboxane synthase, the “inhibitory action on thromboxane synthase” value (“inhibitory action” below) is “same inhibitory potency as the hydrochloride of the imidazolylethoxybenzoic acid UK 37 248”.
For `NC(=O)N(O)Cc1ccc(Oc2ccc(-n3ccnc3)cc2)o1` [Example 6, N-hydroxy-N-[5-[4-(1H-imidazol-1-yl)phenoxy]furan-2-yl-methyl]urea], in the assay on 5-lipoxygenase [2], the “Inhibition … in whole blood” value was found to be 84%.
In the case of `NC(=O)N(O)Cc1ccc(Oc2cccc(-n3ccnc3)c2)cc1` [Example 10, N-hydroxy-N-[4-[3-(1H-imidazol-1-yl)phenoxy]phenylmethyl]urea], it took 2 µM to reach half-maximal inhibition against 5-lipoxygenase [1] (IC50).
On to `Cl.O=C(O)c1ccc(OCCn2ccnc2)cc1` [UK 37 248, 4-[2-(1H-imidazol-1-yl)-ethoxy]benzoic acid hydrochloride, reference compound], for which, on thromboxane synthase, the “inhibitory action” value is “inhibits the activity of thromboxane synthase”. In addition, in the assay on 5-lipoxygenase [4], the “inhibits the activity of 5-lipoxygenase” value is “not the activity of 5-lipoxygenase”.
As for `CC(c1cc2ccccc2s1)N(O)C(N)=O` (centres unmarked) [Zileuton (A 64 077), reference compound], on thromboxane synthase, the half-inhibitory concentration (IC50) is > 100 µM and the “inhibitory action” value is listed as “did not exert an inhibitory action on thromboxane synthase”.

The record behind these values is US5356921A, “Imidazolylphenol compounds, pharmaceutical compositions containing them, and processes for preparing such compounds and compositions” (Gruenenthal GmbH, priority 1992, dated 1994).
